What was measured:
SW620 cells [1] = assay: Exogenous ceramide and TRAIL-mediated apoptosis; format: cell-based, human
Protocol: FIG. 8 is a bar graph showing cell death (%) of SW620 cells incubated with C16 ceramide for 2 h followed by treatment with TRAIL overnight. The tumor cells were then stained with PI and annex V and analyzed by flow cytometry. % apoptotic cells were calculated by the formula [% annexin V^+ cells of the TRAIL-treated cells-% annexin V^+ cells of untreated cells].
A-CDase catalyzes ceramide degradation to decrease ceramide level in the cells and overexpression of A-Cdase is often associated with apoptosis resistance in tumor cells (Elojeimy S, et al. Mol Ther 2007 15(7):1259-63; Liu X, et al. Front Biosci 2008 13:2293-8; Mao C, et al. Biochim Biophys Acta 2008 1781(9):424-34; Ogretmen B. FEBS Lett 2006 580(23):5467-76; Baran Y, et al. J Biol Chem 2007 282(15):10922-34). Inhibition of A-CDase activity is often associated with increased ceramide level and enhanced apoptosis sensitivity (Liu X, et al. Front Biosci 2008 13:2293-8; Ogretmen B. FEBS Lett 2006 580(23):5467-76; White-Gilbertson S, et al. Oncogene 2009 28(8):1132-41). Next, we examined the effect of exogenous ceramide on tumor cell sensitivity to TRAIL-mediated apoptosis. SW620 cells were incubated with different concentrations of C16 ceramide for 2 h and then treated with TRAIL.

SW620 cells [2] = assay: SW620 growth with anticancer drugs, MTT assay; format: cell-based, human; details: for growth inhibitory effect of the drug alone at lower dose: Etoposide 1 μg/ml, Cisplatin 1 μg/ml, 5-FU 0.1 μg/ml, Doxorubicin 0.01 μg/ml; for SW620 cell sensitivity to the drug: drug alone
Protocol: For cell viability assay, cells were seeded in wells of 96-well plates for 2 days and then treated with different concentrations of mushroom extract fractions or purified verticillin A for 2 days. The cells were then incubated with MTT (3-(4,5-dimethylthiazol-2-yl)-2,5-diphenyltetrazolium bromide) using the MTT assay kit (ATCC, Manassas, Va.) according to the manufacturer's instructions.
Etoposie, Cisplatin, 5-FU and Doxorubicin are commonly used cancer drugs that suppress tumor cell growth through their cytotoxicity. High cytotoxicity is often associated with high dose of their drugs. Furthermore, tumor cells often develop resistance to these cytotoxic drugs. To determine whether Verticillin A can increase the efficacy of these drugs and overcome drug resistance, the effectiveness of Verticillin A combined with these 4 drugs in suppression of tumor cell growth was tested in vitro. SW620 cell sensitivity to these drugs was first measured. SW620 cells are resistant to Etoposide but sensitive to 5-FU. […] SW620 cells were next pretreated with Verticillin A, followed by treatment with Etoposide (1 μg/ml), Cisplatin (1 μg/ml), 5-FU ([…]) and Doxorubicin (0.01 μg/ml), respectively.

[3] = tested on: Colon carcinoma (LS114N, T84, LS174T and SW620); assay: A-CDase inhibitor pre-treatment and TRAIL-induced apoptosis; format: cell-based; details: LCL85 pre-treatment prior to TRAIL
Protocol: A complementary approach was examined to determine the role of A-CDase in TRAIL resistance. Colon carcinoma (LS114N, T84, LS174T and SW620) were treated with A-CDase inhibitor LCL85 prior to TRAIL treatment and analyzed for apoptosis.

[4] = tested on: BNIP3, IRF8, Neurog1, p15ink4b, RUNX3; assay: Expression of genes with methylated promoters; format: cell-based, human; details: SW620, AzadC 0-1.0 μM
Protocol: To determine whether verticillin A inhibits DNA methylation in other gene promoters, 4 other genes (IRF8, Neurog1, p15ink4b, RUNX3) with known promoter DNA methylation in human colon carcinoma cells were selected. SW620 cells were treated with AzadC (0-1.0 μM) and verticillin A (0-50 nM), respectively, and analyzed for the expression of BNIP3 and these 4 genes.

SW620 tumor xenograft = SW620 tumor xenograft growth in athymic mice; format: in vivo; details: TRAIL single agent
Protocol: Athymic mice were subcutaneously inoculated with human hepatoma HepG2 and colon carcinoma SW620 cells, respectively. The tumor-bearing mice were randomized into experimental groups. The control mice were given saline. The treatment group was intravenously injected with verticillin A at the doses of 1 and 2 mg/kg body weight. Tumor size was measured in 2 diameter with micrometer caliper at the indicate times to permit calculation of tumor volume, V=(a×b^2)/2, where “a” is the length and “b” is the width in millimeters. At the end of the experiment, all the animals were sacrificed, The tumor inhibitory rates were calculated using the following formula: [(mean tumor volume of control nude mice−mean tumor volume of treated nude mice)/mean tumor volume of control nude mice]×100%.
The disclosed observations indicate that verticillin A can dramatically increase TRAIL-induced tumor cell apoptosis. To determine whether these in vitro observations can be extended to enhance TRAIL-mediated tumor suppression in vivo, SW620 cells were injected subcutaneously to athymic mice, verticillin A and TRAIL, either used as single agent or in combination, were then injected to the tumor-bearing mice. Tumor growth rate were measured in different time points. Verticillin A can inhibit tumor cell growth in vitro at high dose and sensitize tumor cells to TRAIL-induced apoptosis at a low dose. […] As expected, SW620 tumors are resistant to TRAIL (Voelkel-Johnson C, et al. Mol Cancer Ther 2005 4(9):1320-7).

SW620 cells [5] = assay: Apoptosis and TRAIL sensitization of SW620 cells (PI/annexin V flow cytometry); format: cell-based, human; details: SW620, agent alone
Protocol: Cells were seeded in wells of 96-well plates for 2 days and then treated with different concentrations of mushroom extract fractions or purified verticillin A for 2 days. The cells were stained with propidium iodide (PI) (Trevigen, Gaithersburg, Md.) or PI plus annexin V-Alex Fluor 647 (Biolegend, San Diego, Calif.) and analyzed by flow cytometry.
SW620 is a metastatic human colon carcinoma cell line that is resistant to TRAIL-induced apoptosis (Voelkel-Johnson C, et al. Mol Cancer Ther 2005 4(9):1320-7).

Molecule	growth inhibitory effect of the drug alone at lower dose (SW620 cells [2])	SW620 cell sensitivity to the drug (SW620 cells [2])	also measured
CCCCCCCCCCCCC/C=C/[C@@H](O)[C@H](CO)NC(=O)CCCCCCCCCCCCCCC [C16 ceramide]			tumor cell sensitivity to TRAIL-mediated apoptosis (SW620 cells [1]; SW620, C16 ceramide 2 h then TRAIL): dramatically increased the tumor cell sensitivity to TRAIL-mediated apoptosis; apoptosis-inducing activity (SW620 cells [1]; SW620, C16 ceramide alone): exhibited apoptosis-inducing activity at a dose-dependent manner
COc1cc([C@@H]2c3cc4c(cc3[C@@H](O[C@@H]3O[C@@H]5CO[C@@H](C)O[C@H]5[C@H](O)[C@H]3O)[C@H]3COC(=O)[C@H]23)OCO4)cc(OC)c1O [Etoposide]	minimal inhibitory effects	resistant	
N.N.[Cl][Pt][Cl] [Cisplatin]	minimal inhibitory effects	only sensitive to high doses	
COc1cccc2c1C(=O)c1c(O)c3c(c(O)c1C2=O)C[C@@](O)(C(=O)CO)C[C@@H]3O[C@H]1C[C@H](N)[C@H](O)[C@H](C)O1 [Doxorubicin]	minimal inhibitory effects	only sensitive to high doses	
O=C(CCCCCCCCCCCCCCC[n+]1ccccc1)N[C@H](CO)[C@H](O)c1ccc([N+](=O)[O-])cc1.[Br-] [LCL85, (1R,2R)-2_N-[16-(1′-pyridinium)-hexadecanoylamino)-1-(4′-nitrophenyl)-1,3-propandiol bromide]			sensitivity of tumor cells to TRAIL-induced apoptosis [3]: significantly increased the sensitivity of tumor cells to TRAIL-induced apoptosis
O=c1[nH]cc(F)c(=O)[nH]1 [5-FU]	minimal inhibitory effects	sensitive	
Nc1ncn([C@H]2C[C@H](O)[C@@H](CO)O2)c(=O)n1 [AzadC, reference compound]			expression levels of BNIP3, IRF8, Neurog1, p15ink4b, RUNX3 [4]: dramatically increased
TRAIL: TNF-related apoptosis-inducing ligand; recombinant TRAIL protein expressed and purified from E. coli (protein, UniProt P50591 1-281, looked up) Tumor necrosis factor ligand …: MAMMEVQGGPSLGQTCVLIVIFTVLLQSLCVAVTYVYFTNELKQMQDKYSKSGIACFLKEDDSYWDPNDEESMNSPCWQVKWQLRQLVRKMILRTSEETISTVQEKQQNISPLVRERGPQRVAAHITGTRGRSNTLSSPNSKNEKALGRKINSWESSRSGHSFLSNLHLRNGELVIHEKGFYYIYSQTYFRFQEEIKENTKNDKQMVQYIYKYTSYPDPILLMKSARNSCWSKDAEYGLYSIYQGGIFELKENDRIFVSVTNEHLIDMDHEASFFGAFLVG			SW620 tumor response to TRAIL alone (SW620 tumor xenograft): resistant; apoptosis induction, single agent (SW620 cells [5]): no apoptosis induction activity
